The results in this text go back to US4244970A, “Method of treating inflammation” (Forsyth Dental Infirmary for Children, priority 1979, dated 1981).

This experiment concerns the target prostaglandin synthetase (Ovis aries, UniProt P05979). Kind of experiment: Prostaglandin synthetase inhibition, sheep vesicular gland microsomal preparation (oxygen electrode). In kind it is biochemical. The following applies: sheep vesicular gland microsomes; 0.1 M Tris HCl pH 8.0; inhibitor added 1 minute before arachidonate; read-out: [I]50, concentration of an inhibitor that reduced prostaglandin synthesis by 50%.

Chain of prostaglandin synthetase (P05979 25-600): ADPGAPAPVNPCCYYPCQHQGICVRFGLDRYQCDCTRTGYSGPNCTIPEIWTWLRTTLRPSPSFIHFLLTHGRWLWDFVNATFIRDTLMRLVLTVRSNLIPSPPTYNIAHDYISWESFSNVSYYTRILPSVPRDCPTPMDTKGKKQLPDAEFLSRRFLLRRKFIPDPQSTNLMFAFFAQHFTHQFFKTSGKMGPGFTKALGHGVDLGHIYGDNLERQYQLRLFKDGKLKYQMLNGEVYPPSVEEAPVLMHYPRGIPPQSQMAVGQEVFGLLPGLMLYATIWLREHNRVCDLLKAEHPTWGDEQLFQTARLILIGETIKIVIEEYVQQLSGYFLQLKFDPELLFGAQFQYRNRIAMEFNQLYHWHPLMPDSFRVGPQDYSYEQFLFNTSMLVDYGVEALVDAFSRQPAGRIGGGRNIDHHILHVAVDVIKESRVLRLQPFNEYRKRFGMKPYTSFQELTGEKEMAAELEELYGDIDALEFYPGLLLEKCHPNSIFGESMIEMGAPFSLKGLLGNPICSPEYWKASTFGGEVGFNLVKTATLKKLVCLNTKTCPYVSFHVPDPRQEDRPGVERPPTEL
Protocol: Prostaglandin synthetase activity was determined by following oxygen tension in a closed reaction chamber using a Clark-type oxygen electrode. For each assay 2.9 ml of 0.1 M Tris HCl buffer, pH 8.0, 10 ul of 0.2 M phenol, and 50 ul of enzyme suspension (2.5 mg microsomal preparation) were added to the reaction chamber. Ten ul of inhibitor in ethanol was added 1 minute prior to initiation of the reaction. The reaction was initiated by addition of 10 ul of 3.6 mM arachidonate solution. The concentration of an inhibitor that reduced prostaglandin synthesis by 50% ([I]50) was determined from plots of activity vs log concentration of inhibitor.

On to `O=C(c1ccccc1)c1ccccc1O` [2-hydroxybenzophenone], for which the IC50 was found to be 3.8 µM.
